The record followed here is ChEMBL document CHEMBL5550200, “Back-Pocket Optimization of 2-Aminopyrimidine-Based Macrocycles Leads to Potent EPHA2/GAK Kinase Inhibitors” (J Med Chem, 2024).

Data set [1] has as its target T1, Ephrin type-A receptor 4 (Homo sapiens, UniProt P54764). In words: Induction of stabilization of recombinant EPHA4 (unknown origin) assessed as change in melting temperature by differential scanning fluorimetry assay.
The target of data set [2] is Ephrin type-A receptor 7 (Homo sapiens) (UniProt Q15375). In words: Induction of stabilization of recombinant EPHA7 (unknown origin) assessed as change in melting temperature by differential scanning fluorimetry assay.
Ephrin type-A receptor 7 (Homo sapiens), sequence (Q15375 28-998 limits assumed): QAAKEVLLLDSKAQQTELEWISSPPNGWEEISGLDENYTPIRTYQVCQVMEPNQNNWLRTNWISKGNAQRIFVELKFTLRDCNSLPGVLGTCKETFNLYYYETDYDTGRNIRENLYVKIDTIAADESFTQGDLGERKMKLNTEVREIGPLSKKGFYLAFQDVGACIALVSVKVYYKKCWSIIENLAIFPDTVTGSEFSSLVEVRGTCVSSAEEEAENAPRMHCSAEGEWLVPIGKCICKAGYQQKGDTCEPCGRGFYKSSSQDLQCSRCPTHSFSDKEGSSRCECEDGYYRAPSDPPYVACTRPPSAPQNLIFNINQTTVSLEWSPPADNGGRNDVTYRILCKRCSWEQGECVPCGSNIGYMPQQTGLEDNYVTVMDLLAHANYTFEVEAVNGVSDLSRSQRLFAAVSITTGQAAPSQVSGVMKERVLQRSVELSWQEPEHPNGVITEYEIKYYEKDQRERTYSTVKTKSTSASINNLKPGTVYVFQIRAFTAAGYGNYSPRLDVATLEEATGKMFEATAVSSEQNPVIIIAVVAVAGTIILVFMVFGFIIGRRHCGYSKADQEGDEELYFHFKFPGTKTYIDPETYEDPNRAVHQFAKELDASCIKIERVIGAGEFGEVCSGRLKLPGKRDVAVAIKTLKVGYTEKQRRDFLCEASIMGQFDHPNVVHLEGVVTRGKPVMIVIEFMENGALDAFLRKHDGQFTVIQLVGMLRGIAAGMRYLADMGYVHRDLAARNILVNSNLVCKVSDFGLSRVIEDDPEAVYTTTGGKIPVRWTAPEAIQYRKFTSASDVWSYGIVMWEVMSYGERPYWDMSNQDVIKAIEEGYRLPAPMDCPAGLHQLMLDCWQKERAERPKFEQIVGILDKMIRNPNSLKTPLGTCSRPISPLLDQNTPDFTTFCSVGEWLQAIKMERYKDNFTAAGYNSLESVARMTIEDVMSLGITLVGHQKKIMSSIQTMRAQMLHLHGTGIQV
Data set [3] addresses T2, Ephrin type-B receptor 1 (Homo sapiens) (UniProt P54762).
T2 sequence (whole entry): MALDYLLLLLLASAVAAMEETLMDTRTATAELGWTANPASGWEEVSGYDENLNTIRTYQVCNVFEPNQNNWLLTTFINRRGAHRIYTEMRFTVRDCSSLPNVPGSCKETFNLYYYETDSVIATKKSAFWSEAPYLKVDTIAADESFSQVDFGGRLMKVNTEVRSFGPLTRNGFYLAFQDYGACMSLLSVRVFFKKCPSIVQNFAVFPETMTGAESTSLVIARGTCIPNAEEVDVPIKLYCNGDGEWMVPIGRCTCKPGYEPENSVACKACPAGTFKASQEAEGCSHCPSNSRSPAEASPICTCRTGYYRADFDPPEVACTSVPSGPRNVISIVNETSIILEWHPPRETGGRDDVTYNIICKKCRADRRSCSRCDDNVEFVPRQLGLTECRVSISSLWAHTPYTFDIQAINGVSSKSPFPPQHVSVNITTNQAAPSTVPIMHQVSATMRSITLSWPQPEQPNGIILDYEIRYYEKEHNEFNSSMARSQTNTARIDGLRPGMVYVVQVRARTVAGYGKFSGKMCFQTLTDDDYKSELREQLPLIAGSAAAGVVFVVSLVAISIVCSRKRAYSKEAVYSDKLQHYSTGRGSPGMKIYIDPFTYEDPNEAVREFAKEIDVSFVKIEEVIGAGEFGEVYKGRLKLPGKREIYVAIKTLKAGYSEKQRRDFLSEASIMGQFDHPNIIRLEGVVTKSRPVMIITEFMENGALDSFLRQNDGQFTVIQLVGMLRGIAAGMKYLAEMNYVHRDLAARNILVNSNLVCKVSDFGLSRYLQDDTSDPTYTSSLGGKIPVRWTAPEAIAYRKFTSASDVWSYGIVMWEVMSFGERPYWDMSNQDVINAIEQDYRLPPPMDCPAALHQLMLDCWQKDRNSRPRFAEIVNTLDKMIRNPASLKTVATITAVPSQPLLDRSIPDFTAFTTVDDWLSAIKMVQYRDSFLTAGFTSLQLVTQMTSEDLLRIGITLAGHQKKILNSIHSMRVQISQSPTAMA
In words: Induction of stabilization of recombinant EPHB1 (unknown origin) assessed as change in melting temperature by differential scanning fluorimetry assay.

Data set [4] has as its target T3, Ephrin type-B receptor 3 (Homo sapiens) (UniProt P54753).
T3 sequence (whole entry): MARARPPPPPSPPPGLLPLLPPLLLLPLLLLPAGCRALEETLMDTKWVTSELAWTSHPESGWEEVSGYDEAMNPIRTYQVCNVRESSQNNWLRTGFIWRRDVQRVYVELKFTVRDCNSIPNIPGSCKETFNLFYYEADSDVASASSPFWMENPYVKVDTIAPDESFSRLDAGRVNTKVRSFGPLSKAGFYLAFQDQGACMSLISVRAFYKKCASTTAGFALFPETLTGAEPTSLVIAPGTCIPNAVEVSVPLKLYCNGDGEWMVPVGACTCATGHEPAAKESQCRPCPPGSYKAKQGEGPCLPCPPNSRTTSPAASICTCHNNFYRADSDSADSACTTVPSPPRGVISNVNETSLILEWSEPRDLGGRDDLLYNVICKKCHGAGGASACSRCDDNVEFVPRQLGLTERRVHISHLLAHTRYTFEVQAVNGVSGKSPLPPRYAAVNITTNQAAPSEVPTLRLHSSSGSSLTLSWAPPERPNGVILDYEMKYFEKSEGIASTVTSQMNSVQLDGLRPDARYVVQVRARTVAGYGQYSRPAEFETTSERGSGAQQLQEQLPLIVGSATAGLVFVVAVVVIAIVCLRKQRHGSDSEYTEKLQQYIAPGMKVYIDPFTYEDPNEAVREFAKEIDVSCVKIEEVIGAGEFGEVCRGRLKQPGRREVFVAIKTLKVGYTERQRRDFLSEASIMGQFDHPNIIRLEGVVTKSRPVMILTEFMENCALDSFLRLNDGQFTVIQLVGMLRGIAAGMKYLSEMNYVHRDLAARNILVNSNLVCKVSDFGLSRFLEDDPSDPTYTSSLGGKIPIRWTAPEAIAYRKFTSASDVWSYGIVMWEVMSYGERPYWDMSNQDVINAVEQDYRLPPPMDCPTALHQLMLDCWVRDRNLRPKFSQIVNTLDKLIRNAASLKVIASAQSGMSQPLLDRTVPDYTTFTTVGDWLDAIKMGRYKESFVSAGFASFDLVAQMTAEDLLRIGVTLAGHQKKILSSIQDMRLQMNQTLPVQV
In words: Induction of stabilization of recombinant EPHB3 (unknown origin) assessed as change in melting temperature by differential scanning fluorimetry assay.

Data set [5] concerns the target T4, Vascular endothelial growth factor receptor 1 (Homo sapiens, UniProt P17948). In words: Induction of stabilization of recombinant FLT1 (unknown origin) assessed as change in melting temperature by differential scanning fluorimetry assay.
Data set [6] in a line: Metabolic stability in Sprague-Dawley rat liver microsomes assessed as parent compound remaining at 10 uM measured after 60 min by HPLC analysis. It counts as ADME, Microsome. The conditions noted are these: read-out: Stability.
Data set [7] is described as follows: Metabolic stability in Sprague-Dawley rat liver microsomes assessed as half life at 10 uM preincubated for 5 mins followed by NADPH regenerating system measured upto 60 min by HPLC analysis. Format: ADME, Microsome. The conditions noted are these: time < 65 min.
Data set [8] can be described thus: Solubility of the compound measured after 24 hrs by HPLC/MS analysis. It counts as physicochemical.
In a further data set the test system is dengue virus type 2. Description: Antiviral activity against DENV-2 New Guinea C infected in human Huh-7 cells assessed as reduction in virus induced cytopathic effect preincubated with cells for 1 hr followed by viral infection and measured after 45 to 48 hrs by luciferase assay. It counts as functional, organism-based. The conditions noted are these: for EC90: time 45-48 hrs.

In the next data set the test system is Huh-7. Description: Cytotoxicity against human Huh-7 cells assessed as reduction in cell viability by alamar blue reagent based analysis. Format: functional.
The target of data set [9] is Ephrin type-A receptor 5 (Homo sapiens) (UniProt P54756).
Description: Induction of stabilization of recombinant EPHA5 (unknown origin) assessed as change in melting temperature by differential scanning fluorimetry assay
Data set [10] has as its target T5, Fibroblast growth factor receptor 1 (Homo sapiens, UniProt P11362).
Target sequence in this assay (P11362 22-822 limits assumed): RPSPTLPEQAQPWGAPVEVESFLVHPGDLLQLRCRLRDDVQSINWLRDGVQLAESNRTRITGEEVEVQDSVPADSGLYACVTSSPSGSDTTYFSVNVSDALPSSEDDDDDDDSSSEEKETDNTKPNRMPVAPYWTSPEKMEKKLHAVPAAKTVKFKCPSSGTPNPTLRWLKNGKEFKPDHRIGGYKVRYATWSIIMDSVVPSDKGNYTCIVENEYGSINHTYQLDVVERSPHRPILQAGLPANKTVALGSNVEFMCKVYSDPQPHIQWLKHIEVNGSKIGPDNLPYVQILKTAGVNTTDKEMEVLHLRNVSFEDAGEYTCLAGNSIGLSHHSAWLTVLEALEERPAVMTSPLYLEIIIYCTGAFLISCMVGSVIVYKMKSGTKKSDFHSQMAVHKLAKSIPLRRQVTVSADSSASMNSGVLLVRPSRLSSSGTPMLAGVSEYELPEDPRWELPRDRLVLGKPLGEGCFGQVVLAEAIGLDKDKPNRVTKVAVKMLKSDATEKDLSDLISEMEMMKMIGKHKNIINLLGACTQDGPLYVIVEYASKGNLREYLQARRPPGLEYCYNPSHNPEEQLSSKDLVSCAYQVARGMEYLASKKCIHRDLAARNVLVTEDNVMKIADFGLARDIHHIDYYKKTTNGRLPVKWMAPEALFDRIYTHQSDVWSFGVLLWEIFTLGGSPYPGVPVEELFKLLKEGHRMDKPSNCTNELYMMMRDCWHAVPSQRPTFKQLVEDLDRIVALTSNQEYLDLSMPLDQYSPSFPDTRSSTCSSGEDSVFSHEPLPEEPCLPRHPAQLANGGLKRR
Description: Induction of stabilization of recombinant FGFR1 (unknown origin) assessed as change in melting temperature by differential scanning fluorimetry assay
The target in data set [11] is Fibroblast growth factor receptor 2 (Homo sapiens) (UniProt P21802).
Fibroblast growth factor receptor 2 (Homo sapiens), sequence (P21802 22-821 limits assumed): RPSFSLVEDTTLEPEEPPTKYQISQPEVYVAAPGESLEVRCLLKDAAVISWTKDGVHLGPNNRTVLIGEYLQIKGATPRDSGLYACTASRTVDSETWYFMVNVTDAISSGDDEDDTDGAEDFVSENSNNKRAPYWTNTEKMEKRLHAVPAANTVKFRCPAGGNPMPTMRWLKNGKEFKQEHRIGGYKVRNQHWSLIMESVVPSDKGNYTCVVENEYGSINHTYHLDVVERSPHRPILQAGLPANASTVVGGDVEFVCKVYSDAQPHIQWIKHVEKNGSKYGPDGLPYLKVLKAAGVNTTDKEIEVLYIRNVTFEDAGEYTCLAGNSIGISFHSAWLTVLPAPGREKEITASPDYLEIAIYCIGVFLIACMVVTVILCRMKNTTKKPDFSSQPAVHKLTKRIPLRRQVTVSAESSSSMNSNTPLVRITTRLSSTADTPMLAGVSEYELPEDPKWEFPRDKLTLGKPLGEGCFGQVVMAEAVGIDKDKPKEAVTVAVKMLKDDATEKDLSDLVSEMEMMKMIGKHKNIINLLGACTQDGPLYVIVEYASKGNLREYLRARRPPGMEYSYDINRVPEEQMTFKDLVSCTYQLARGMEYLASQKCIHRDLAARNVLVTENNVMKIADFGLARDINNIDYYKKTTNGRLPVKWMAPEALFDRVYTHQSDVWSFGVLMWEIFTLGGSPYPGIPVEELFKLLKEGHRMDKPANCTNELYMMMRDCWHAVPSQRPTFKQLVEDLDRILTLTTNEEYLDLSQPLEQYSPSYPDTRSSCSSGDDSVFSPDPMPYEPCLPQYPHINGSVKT
Description: Induction of stabilization of recombinant FGFR2 (unknown origin) assessed as change in melting temperature by differential scanning fluorimetry assay
The target of data set [12] is T6, Ephrin type-A receptor 2 (Homo sapiens, UniProt P29317).
Description: Induction of stabilization of recombinant EPHA2 (D596 to G900 residues) (unknown origin) expressed in Escherichia coli rosetta BL21(D3)-R3-pRARE2 competent cells assessed as change in melting temperature by differential scanning fluorimetry assay
For data set [13], the target named is T6, Ephrin type-A receptor 2. The source holds these as a separate data set.
Description: Binding affinity to recombinant his tagged EPHA2 (D596 to G900 residues) (unknown origin) expressed in Escherichia coli rosetta BL21(D3)-R3-pRARE2 competent cells assessed as dissociation constant by surface plasmon resonance method
Data set [14] concerns the target T1, Ephrin type-A receptor 4. In words: Inhibition of full length EPHA4 (unknown origin) expressed in HEK293T cells using NanoBRET NanoGlo substrate incubated for 2 hrs in presence of K4 tracer by NanoBRET assay. It counts as cell-based.
Data set [15] deals with Tyrosine-protein kinase ABL1 (Homo sapiens, UniProt P00519). Description: Inhibition of full length ABL1 (unknown origin) expressed in HEK293T cells using NanoBRET NanoGlo substrate incubated for 2 hrs in presence of K4 tracer by NanoBRET assay. It counts as cell-based.
For data set [16], the target named is T5, Fibroblast growth factor receptor 1. In words: Inhibition of full length FGFR1 (unknown origin) expressed in HEK293T cells using NanoBRET NanoGlo substrate incubated for 2 hrs in presence of K10 tracer by NanoBRET assay. It counts as cell-based.
Data set [17] addresses T4, Vascular endothelial growth factor receptor 1. Description: Inhibition of full length FLT1 (unknown origin) expressed in HEK293T cells using NanoBRET NanoGlo substrate incubated for 2 hrs in presence of K9 tracer by NanoBRET assay. It counts as cell-based.

Molecules are shown by their SMILES. In brackets after ≈: the same amount, converted by molar mass. Some results are limits rather than exact numbers.

T4 sequence (P17948 whole entry): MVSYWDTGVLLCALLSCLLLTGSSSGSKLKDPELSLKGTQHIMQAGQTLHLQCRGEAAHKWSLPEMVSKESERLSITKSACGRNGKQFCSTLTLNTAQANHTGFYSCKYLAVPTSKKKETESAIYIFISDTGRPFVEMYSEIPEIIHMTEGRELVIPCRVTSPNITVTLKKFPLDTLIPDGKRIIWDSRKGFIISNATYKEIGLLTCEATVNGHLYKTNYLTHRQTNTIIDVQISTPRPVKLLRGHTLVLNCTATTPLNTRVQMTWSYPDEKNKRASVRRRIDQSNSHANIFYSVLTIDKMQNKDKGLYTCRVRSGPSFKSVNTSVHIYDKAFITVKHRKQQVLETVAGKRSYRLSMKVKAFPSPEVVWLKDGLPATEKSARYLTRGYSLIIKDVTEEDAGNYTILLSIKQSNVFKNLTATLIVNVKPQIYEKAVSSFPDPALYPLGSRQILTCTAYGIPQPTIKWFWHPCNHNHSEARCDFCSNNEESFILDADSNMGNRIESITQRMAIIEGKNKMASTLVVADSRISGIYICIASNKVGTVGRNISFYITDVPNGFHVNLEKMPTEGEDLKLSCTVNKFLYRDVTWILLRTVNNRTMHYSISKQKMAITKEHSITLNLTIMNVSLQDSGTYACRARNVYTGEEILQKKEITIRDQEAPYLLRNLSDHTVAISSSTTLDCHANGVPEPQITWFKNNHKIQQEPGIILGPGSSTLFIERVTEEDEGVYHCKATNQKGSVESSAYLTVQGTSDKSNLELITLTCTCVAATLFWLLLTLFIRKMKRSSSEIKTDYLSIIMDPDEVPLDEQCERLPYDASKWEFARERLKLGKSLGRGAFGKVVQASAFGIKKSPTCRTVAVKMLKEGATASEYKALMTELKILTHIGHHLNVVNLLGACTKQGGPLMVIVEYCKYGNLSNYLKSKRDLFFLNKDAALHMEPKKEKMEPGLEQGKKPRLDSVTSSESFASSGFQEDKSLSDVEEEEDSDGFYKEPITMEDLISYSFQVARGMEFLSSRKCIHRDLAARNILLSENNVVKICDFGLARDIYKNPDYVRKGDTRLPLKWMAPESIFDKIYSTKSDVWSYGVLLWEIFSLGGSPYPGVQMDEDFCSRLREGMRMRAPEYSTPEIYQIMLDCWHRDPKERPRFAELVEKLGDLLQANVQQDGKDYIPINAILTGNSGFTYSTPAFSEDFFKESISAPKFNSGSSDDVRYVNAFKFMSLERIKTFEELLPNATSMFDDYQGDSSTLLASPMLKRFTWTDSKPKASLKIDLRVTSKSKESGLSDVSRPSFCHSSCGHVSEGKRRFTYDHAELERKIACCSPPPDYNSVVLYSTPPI
T1 sequence (P54764 whole entry): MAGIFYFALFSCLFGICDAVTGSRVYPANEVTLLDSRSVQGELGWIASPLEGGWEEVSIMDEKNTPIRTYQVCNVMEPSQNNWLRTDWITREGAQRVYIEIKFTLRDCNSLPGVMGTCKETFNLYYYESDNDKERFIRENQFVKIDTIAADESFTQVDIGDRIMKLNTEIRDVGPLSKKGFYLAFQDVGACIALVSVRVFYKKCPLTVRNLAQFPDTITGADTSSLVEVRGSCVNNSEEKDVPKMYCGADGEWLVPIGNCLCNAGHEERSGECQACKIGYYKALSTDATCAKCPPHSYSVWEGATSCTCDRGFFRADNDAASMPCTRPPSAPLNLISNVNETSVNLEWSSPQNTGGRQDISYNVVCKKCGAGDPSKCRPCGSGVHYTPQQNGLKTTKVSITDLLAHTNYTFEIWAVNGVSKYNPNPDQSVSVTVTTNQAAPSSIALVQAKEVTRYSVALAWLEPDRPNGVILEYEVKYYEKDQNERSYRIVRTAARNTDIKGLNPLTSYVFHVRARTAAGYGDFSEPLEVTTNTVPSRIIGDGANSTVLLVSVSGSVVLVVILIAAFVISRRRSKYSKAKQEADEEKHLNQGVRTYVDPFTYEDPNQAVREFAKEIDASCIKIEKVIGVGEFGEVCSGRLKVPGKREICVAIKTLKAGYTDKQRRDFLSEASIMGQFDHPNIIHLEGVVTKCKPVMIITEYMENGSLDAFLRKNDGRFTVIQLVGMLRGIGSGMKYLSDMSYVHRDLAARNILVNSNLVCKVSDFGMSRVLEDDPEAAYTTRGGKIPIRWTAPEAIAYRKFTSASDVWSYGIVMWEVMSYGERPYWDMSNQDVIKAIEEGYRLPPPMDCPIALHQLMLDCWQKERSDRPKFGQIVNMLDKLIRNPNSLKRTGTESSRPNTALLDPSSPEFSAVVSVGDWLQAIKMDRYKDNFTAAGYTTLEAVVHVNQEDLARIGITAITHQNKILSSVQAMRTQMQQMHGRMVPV

Take `COc1cc(-c2cnc3nc2NCCCNS(=O)(=O)c2cccc(c2)N3)ccc1Br`: the deltaTm at Ephrin type-A receptor 4 [1] worked out at 3.2 K; in data set [2], 0.1 K; in [3], 2.8 K; in data set [4], 4 K; in data set [5], 2.6 K; in [9], 5 K. In addition, the figures for the deltaTm in data set [10] and in data set [11] were 1.8 K and 2.4 K, respectively. In data set [6], the remaining at 1 h, 10 µM was found to be 87%. Also, in data set [7], the half-life at 10 µM was 4.6 h. In addition, the solubility at 24 h in [8] worked out at 2.24 µg/mL (≈ 4.57 µM). In addition, the EC50 with dengue virus type 2 is 5.3 µM. Besides, the EC90 in the data set on dengue virus type 2 is 9.8 µM. Further, the CC50 with Huh-7 was above 10 µM.

`CCNc1nc(Nc2cccc(S(=O)(=O)NC)c2)ncc1-c1ccc(F)c(OC)c1` gave a deltaTm at Ephrin type-A receptor 2 [12] of 4.2 K. The Kd entry on Ephrin type-A receptor 2 [13] is listed as “Not Active”.

For the compound `O=C(Nc1ccccc1Cl)c1cnc2ccc(C3CCNCC3)cn12`, the EC50 was 0.048 µM at Ephrin type-A receptor 4 [14]; 49 µM in [15]; above 50 µM in data set [16]; above 50 µM in data set [17]; 6.5 µM in the data set on dengue virus type 2. For the same compound, the EC90 with dengue virus type 2 was above 10 µM. Also, the half-maximal cytotoxic concentration (CC50) in the data set on Huh-7 was above 10 µM.

Regarding `COCCOc1ccc2cc1S(=O)(=O)NCCCNc1nc(ncc1-c1ccc(F)c(OC)c1)N2`, the deltaTm at Ephrin type-A receptor 4 [1] stood at 4.5 K; in data set [2], 1 K; in [3], 2.6 K; in data set [4], 3.1 K; in data set [5], 1.8 K; in data set [9], 5.4 K. For the same compound, the deltaTm is 2.5 K in data set [10] and 4.5 K in data set [11]. For the same compound, in the data set on dengue virus type 2, the EC50 is above 10 µM. The EC90 in the data set on dengue virus type 2 was above 10 µM. Further, in the data set with Huh-7, the half-maximal cytotoxic concentration (CC50) is above 10 µM.

Consider `COc1cc(-c2cnc3nc2NCCCNS(=O)(=O)c2cccc(c2)N3)ccc1F`, for which the deltaTm on Ephrin type-A receptor 4 [1] was 3.6 K; in data set [2], 0.3 K; in data set [3], 4.3 K; in data set [4] it was 5.6 K; in data set [5], 6.3 K; in [9], 5.4 K. Further, the deltaTm was 3.3 K in [10] and 4.4 K in data set [11]. In data set [7], the half-life at 10 µM is 6.6 h. The EC50 with dengue virus type 2 was above 10 µM. Further, the concentration for an effect of 90% (EC90) in the data set on dengue virus type 2 is above 10 µM. Moreover, in the data set with Huh-7, the CC50 was above 10 µM.

Consider `COc1cc(-c2cnc3nc2NCCCNS(=O)(=O)c2cc(ccc2OC)N3)ccc1F`, for which the deltaTm at Ephrin type-A receptor 4 [1] was 4.4 K; in data set [2], 1 K; in data set [3], 3.1 K; in data set [4], 1.6 K; in [5], 1.3 K; in [9], 4.7 K. The deltaTm came to 2 K in data set [10] and 3.4 K in [11]. Moreover, in the data set on dengue virus type 2, the concentration for a half-maximal effect (EC50) was above 10 µM. Also, in the data set with dengue virus type 2, the EC90 is above 10 µM. Further, the CC50 in the data set on Huh-7 is above 10 µM.
